Each structure is given as a SMILES string. Values after ≈ are worked out from the molar mass of the structure shown. Read-outs that look alike come from different tables or passages of the source. A value given as a limit tells only on which side of the number the result lay.

Experiment [1] relates to Candida glabrata ATCC 2001 (H). Briefly: MIC determination by in vitro antifungal assay. Type of experiment: cell-based. The conditions noted are these: ATCC 2001 in text. The method, then:
(§1) 10 mg/mL stock solutions of compounds 1a-9j were prepared in dimethyl sulfoxide (DMSO) and were stored at −20° C. in the dark. The antifungal agent amphotericin B (AmB) was purchased from VWR (Radnor PA, USA). AmB was dissolved in DMSO at a final concentration of 5 mg/mL and was stored at −20° C., protected from light. Candida albicans American Type Culture Collection (ATCC) 10231 (strain A), C. albicans ATCC 64124 (B), and C. albicans ATCC MYA-2876 (C) were obtained from Utah State University. C. albicans ATCC 90819 (D), C. albicans ATCC MYA-2310 (E), C. albicans ATCC MYA-1237 (F), C. albicans ATCC MYA-1003 (G), Candida glabrata ATCC 2001 (H), Candida krusei ATCC 6258 (I), Candida parapsilosis ATCC 22019 (J), Cryptococcus neoformans ATCC MYA-895 (M), Aspergillus terreus ATCC MYA-3633 (N), and Aspergillus flavus ATCC MYA-3631 (0) were obtained from the American Type Culture Collection (ATCC; Manassas, VA, USA). Aspergillus nidulans ATCC 38163 (P) was obtained from University of Kentucky. Clinically derived Aspergillus fumigatus NRRL 163 (Q), A. fumigatus NRRL 5109 (R), and A. fumigatus NRRL 6113 (S) were obtained from Northern Regional Research Laboratory (NRRL). Candida auris 384 (K), C. auris 390 (L), and fungal strains 381-400 (including 10 C. auris (AR Bank #381-390), 3 Candida duobushaemulonii (AR Bank #391, AR Bank #392, and AR Bank #394), 2 Candida haemulonii (AR Bank #393 and AR Bank #395), 1 Kodameae ohmeri (AR Bank #396), 1 C. krusei (AR Bank #397), 1 Candida lusitaniae (AR Bank #398), and 2 Saccharomyces cerevisiae strains (AR Bank #399 and AR Bank #400)) were part of a larger fungal library from the AR Bank maintained by the Centers for Disease Control and Prevention (CDC; Atlanta, GA, USA). Filamentous fungi and yeasts were cultivated at 35° C. in RPMI 1640 medium (with L-glutamine, without sodium bicarbonate, Sigma-Aldrich, St. Louis, MO) buffered to a pH of 7.0 with 0.165 M morpholinepropanesulfonic acid (MOPS) buffer (Sigma-Aldrich). For cytotoxicity assays, HepG2 and the mouse macrophage cell line J774A.1 were obtained from University of Kentucky. The human embryonic kidney cell line, HEK-293, was bought from the ATCC. Mammalian cells were grown in Dulbecco's Modified Eagle's Medium (DMEM) (from VWR) with 10% fetal bovine serum (FBS) (from VWR) and 1% Pen/Strep (from ATCC). Cell lines were cultured at 37° C. with 5% CO2 and passaged by trypsinization with 0.05% trypsin: 0.53 mM EDTA (from Sigma-Aldrich).
(§2) The MIC values of compounds 1a-9j against yeast cells (strains A-P and 381-400) were determined in 96-well plates as described in the CLSI documents M27-A3 and M38-A2 with minor modifications.^2 A single colony of freshly prepared yeast cells was used to inoculate 5 mL of yeast extract peptone dextrose (YPD) broth prior to incubation overnight with shaking at 200 rpm at 35° C. From the actively growing yeast culture, 100 µL were then transferred to 900 μL of RPMI 1640 medium and re-adjusted to achieve OD600 of 0.12 (˜1×10^6 CFU/mL). The cell suspension was further diluted to achieve 1:100 in RPMI 1640 medium. 100 μL of cells were added to the wells of a 96-well microtiter plates that contained 100 µL of the compound solution to obtain concentrations of 0.06-31.3 μg/mL of compounds 1a-9j or AmB prior to incubation for 48 h at 35° C. […]

Experiment [2] relates to Cryptococcus neoformans ATCC MYA-895 (M). Briefly: MIC determination by in vitro antifungal assay. Type of experiment: cell-based. The conditions noted are these: strain M = C. neoformans ATCC MYA-895. On the procedure: as §1
(§3) The MIC values of compounds 1a-9j against yeast cells (strains A-P and 381-400) were determined in 96-well plates as described in the CLSI documents M27-A3 and M38-A2 with minor modifications.^2 A single colony of freshly prepared yeast cells was used to inoculate 5 mL of yeast extract peptone dextrose (YPD) broth prior to incubation overnight with shaking at 200 rpm at 35° C. From the actively growing yeast culture, 100 µL were then transferred to 900 μL of RPMI 1640 medium and re-adjusted to achieve OD600 of 0.12 (˜1×10^6 CFU/mL). The cell suspension was further diluted to achieve 1:100 in RPMI 1640 medium. 100 μL of cells were added to the wells of a 96-well microtiter plates that contained 100 µL of the compound solution to obtain concentrations of 0.06-31.3 μg/mL of compounds 1a-9j or AmB prior to incubation for 48 h at 35° C.
(§4) Finally, the activity of these monohydrazides was explored against […] non-Candida strains: Cryptococcus neoformans ATCC MYA-895 (M), Aspergillus terreus ATCC MYA-3633 (N), Aspergillus flavus ATCC MYA-3631 (O), Aspergillus nidulans ATCC 38163 (P), Aspergillus fumigatus NRRL 163 (Q), A. fumigatus NRRL 5109 (R), and A. fumigatus NRRL 6113 (S) (Tables 1A and 1B). The double dilution method was used with concentrations ranging from 0.06 to 31.3 j·tg mL^−1 for monohydrazides 1a-9j, and the commercially available positive antifungal control amphotericin B (AmB).

Experiment [3] concerns Aspergillus nidulans ATCC 38163 (P). Briefly: MIC determination by in vitro antifungal assay. Type of experiment: cell-based. The method, then: as §1, §3, §4
Experiment [4] has as its system Aspergillus fumigatus NRRL 163 (Q). Briefly: MIC determination by in vitro antifungal assay. Conditions: Aspergillus fumigatus, NRRL163; strain Q = A. fumigatus NRRL 163; read-out: MIC. Type of experiment: cell-based. On the procedure: as §1, §3, §4
Experiment [5] has as its system Aspergillus flavus ATCC MYA-3631 (O). The experiment is described as follows: MIC determination by in vitro antifungal assay. Type of experiment: cell-based. Conditions: Aspergillus flavus; strain O = A. flavus ATCC MYA-3631; read-out: MIC. The method, then:
as §1, §3, §4

For experiment [6], the system named is C. albicans ATCC MYA-2876 (C). The experiment is described as follows: MIC determination by in vitro antifungal assay. Type of experiment: cell-based, Candida albicans. The conditions noted are these: strain C = C. albicans ATCC MYA-2876(S). On the procedure:
as §1, §2

The subject of experiment [7] is C. albicans ATCC MYA-1237 (F). The experiment is described as follows: MIC determination by in vitro antifungal assay. Type of experiment: cell-based, Candida albicans. The conditions noted are these: strain F = C. albicans ATCC MYA-1237(R). The method, then: as §1, §2
In experiment [8] the test system is C. albicans ATCC 90819 (D). The experiment is described as follows: MIC determination by in vitro antifungal assay. Type of experiment: cell-based, Candida albicans. The method, then:
as §1, §2

The subject of experiment [9] is C. albicans ATCC 10231 (strain A). The experiment is described as follows: MIC determination by in vitro antifungal assay (CLSI broth dilution). Type of experiment: cell-based, Candida albicans. The conditions noted are these: strain A = C. albicans ATCC 10231, no visible growth, 48 h at 35° C. On the procedure: as §1, §2
A general note: In broth dilution the organism is exposed to a series of concentrations in liquid medium.

In experiment [10] the test system is A. fumigatus NRRL 5109 (R). Briefly: MIC determination by in vitro antifungal assay. Type of experiment: cell-based, Aspergillus fumigatus. The conditions noted are these: Aspergillus fumigatus, NRRL5109; strain R = A. fumigatus NRRL 5109; read-out: MIC. The method, then:
as §1, §3, §4

The test system of experiment [11] is A. fumigatus NRRL 6113 (S). The experiment is described as follows: MIC determination by in vitro antifungal assay. Type of experiment: cell-based, Aspergillus fumigatus. The conditions noted are these: Aspergillus fumigatus, NRRL6113; strain S = A. fumigatus NRRL 6113; read-out: MIC. The method, then:
as §1, §3, §4

Setting [12] is: Candida albicans, read-out: MIC.

For `O=C(NNc1ccc(F)cc1F)c1cccc(Br)n1` [Compound 6g], the MIC in experiment [1] (Nakaseomyces glabratus, ATCC 2001 / ATCC 2004, strain H = C. glabrata ATCC 2004 (footnote), read-out: MIC) came to 7.8 µg/mL (≈ 23.8 µM); in experiment [1] (strain H = C. glabrata ATCC 2004 (footnote)), 15.6 μg/mL^−1; in [2] (Cryptococcus neoformans, read-out: MIC), 0.98 µg/mL (≈ 2.99 µM); in [2] it was 0.49 μg/mL^−1; in experiment [3] (Aspergillus nidulans, ATCC38163, strain P = A. nidulans ATCC 38163, read-out: MIC), 3.9 µg/mL (≈ 11.9 µM); in experiment [3] (strain P = A. nidulans ATCC 38163) it was 1.95 μg/mL^−1. Also, the MIC in experiment [4] is over 31.3 µg/mL; in [5] it was over 31.3 µg/mL; in experiment [6] (setting [12]) it was 0.49 µg/mL (≈ 1.49 µM); in [6], 0.98 μg/mL^−1; in experiment [7] (setting [12]) it was 0.98 µg/mL (≈ 2.99 µM); in [7], 1.95 μg/mL^−1. Further, the MIC in experiment [8] (Candida albicans, ATCC90819, strain D = C. albicans ATCC 90819(R), read-out: MIC) was 1.95 µg/mL (≈ 5.94 µM); in experiment [8] (strain D = C. albicans ATCC 90819(R)), 3.9 μg/mL^−1; in experiment [9] (Candida albicans, ATCC10231, 48 h, read-out: MIC) it was 1.95 µg/mL (≈ 5.94 µM); in [9] it was 3.9 μg/mL^−1; in [10], 31.3 µg/mL (≈ 95.4 µM); in experiment [11], over 31.3 µg/mL.

These data come from patent publication US20240425464A1, “Substituted Monohydrazides as Potent Antifungal Agents” (University of Kentucky Research Foundation, priority 2023, published 2024).
